pIC50: −log10 of the molar value.
Molecular target: fully phosphorylated, active Mouse ERK2 protein (Mus musculus (Mouse), UniProt P63085)
Test: Active ERK2 (aERK) IMAP assay
Format: biochemical
Details: IMAP fluorescence polarization; 30 μM ATP; 30 minute pre-incubation

Sequence of fully phosphorylated, active Mouse ERK2 protein (P63085 whole entry): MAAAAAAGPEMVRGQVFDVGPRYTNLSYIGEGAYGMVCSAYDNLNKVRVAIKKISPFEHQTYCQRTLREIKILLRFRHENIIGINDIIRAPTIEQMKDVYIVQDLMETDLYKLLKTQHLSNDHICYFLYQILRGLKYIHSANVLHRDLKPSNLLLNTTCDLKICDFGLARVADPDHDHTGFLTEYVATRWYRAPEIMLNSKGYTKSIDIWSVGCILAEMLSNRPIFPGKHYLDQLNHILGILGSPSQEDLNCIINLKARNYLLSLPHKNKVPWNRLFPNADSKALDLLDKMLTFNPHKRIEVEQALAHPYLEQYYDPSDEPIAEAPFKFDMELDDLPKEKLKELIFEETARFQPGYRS

Row | Compound | pIC50
1 | Cc1cc(-c2n[nH]c3ccc(C(=O)N[C@@H]4CCC[C@](O)(Cn5ncc6cnccc65)C4)cc23)ccn1 (relative stereo) [compound 87, N-[trans-3-hydroxy-3-(1H-pyrazolo[4,3-c]pyridin-1-ylmethyl)cyclohexyl]-3-(2-methyl-4-pyridinyl)-1H-indazole-5-carboxamide] | 6.39
2 | Cc1cc(-c2n[nH]c3ccc(C(=O)N[C@H]4CCC[C@](O)(Cn5ncc6ccc(F)cc65)C4)cc23)ccn1 (relative stereo) [compound 107, N-[cis-3-[(6-fluoro-1H-indazol-1-yl)methyl]-3-hydroxycyclohexyl]-3-(2-methyl-4-pyridinyl)-1H-indazole-5-carboxamide] | 6.44
3 | Cn1cc2cc(-c3n[nH]c4ccc(C(=O)N[C@@H]5CCC[C@@](O)(Cn6cccn6)C5)cc34)ccc2n1 (relative stereo) [compound 60, N-[cis-3-hydroxy-3-(1H-pyrazol-1-ylmethyl)cyclohexyl]-3-(2-methyl-2H-indazol-5-yl)-1H-indazole-5-carboxamide] | 6.82
4 | Cc1cc(-c2n[nH]c3ccc(C(=O)N[C@@H]4CCC[C@](O)(Cn5c(=O)ccc6ccccc65)C4)cc23)ccn1 (relative stereo) [compound 89, N-[trans-3-hydroxy-3-[(2-oxo-1(2h)-quinolinyl)methyl]cyclohex-yl]-3-(2-methyl-4-pyridinyl)-1H-indazole-5-carboxamide] | 6.15
5 | Cc1cc(-c2n[nH]c3ccc(C(=O)N[C@@H]4CCC[C@](O)(Cn5c(C)nc6cnccc65)C4)cc23)ccn1 (relative stereo) [compound 76, N-[trans-3-hydroxy-3-[(2-methyl-1H-imidazo[4,5-c]pyridin-1-yl)methyl]cyclohexyl]-3-(2-methyl-4-pyridinyl)-1H-indazole-5-carboxamide] | 6.87
6 | Cc1cc(-c2n[nH]c3ccc(C(=O)N[C@@H]4CCC[C@@](O)(Cn5c(C(F)(F)F)nc6ccccc65)C4)cc23)ccn1 [compound 68] | 6.09
7 | Cc1cc(-c2n[nH]c3ccc(C(=O)N[C@@H]4CCC[C@](O)(Cn5cnc6ncccc65)C4)cc23)ccn1 (relative stereo) [compound 71, N-[trans-3-hydroxy-3-(1H-imidazo[4,5-b]pyridin-1-ylmethyl)cyclohexyl]-3-(2-methyl-4-pyridinyl)-1H-indazole-5-carboxamide] | 6.33
8 | Cc1cc(-c2n[nH]c3ccc(C(=O)NC4CCCC(O)(C(F)(F)c5ccccc5)C4)cc23)ccn1 (centres unmarked) [compound 46, N-[3-(difluorophenylmethyl)-3-hydroxycyclohexyl]-3-(2-methyl-4-pyridinyl)-1H-indazole-5-carboxamide] | 6.20
9 | O=C(NC1CCCC(O)(Cc2ccccc2F)C1)c1ccc2[nH]nc(-c3ccc4ncsc4c3)c2c1 (single isomer, unassigned) [compound 10, 3-(6-benzothiazolyl)-N-[3-[(2-fluorophenyl)methyl]-3-hydroxycyclohexyl]-1H-indazole-5-carboxamide] | 6.00
10 | Cc1cc(-c2n[nH]c3ccc(C(=O)N[C@@H]4CCC[C@@](O)(Cn5cc6cccnc6n5)C4)cc23)ccn1 (relative stereo) [compound 78, N-[cis-3-hydroxy-3-(2H-pyrazolo[3,4-b]pyridin-2-ylmethyl)cyclohexyl]-3-(2-methyl-4-pyridinyl)-1H-indazole-5-carboxamide] | 6.23
11 | Cc1cc(-c2n[nH]c3ccc(C(=O)NC4CCCC(F)(Cc5ccccc5F)C4)cc23)ccn1 (racemic) [compound 54, N-[3-fluoro-3-[(2-fluorophenyl)methyl]cyclohexyl]-3-(2-methyl-4-pyridinyl)-1H-indazole-5-carboxamide (racemic)] | 6.00
12 | Cc1cc(-c2n[nH]c3ccc(C(=O)NN4CCCC(Oc5ccccc5F)C4)cc23)ccn1 (centres unmarked) [compound 142, N-[3-(2-fluorophenoxy)-1-piperidinyl]-3-(2-methyl-4-pyridinyl)-1H-indazole-5-carboxamide] | 6.82

Now those with a higher pIC50, led by results:

Row | pIC50 | Compound
13 | 7.95 | Cc1cc(-c2n[nH]c3ccc(C(=O)NC4CCCC(Oc5cccc(F)c5)(C(N)=O)C4)cc23)ccn1 (centres unmarked) [compound 42, N-[3-(aminocarbonyl)-3-(3-fluorophenoxy)cyclohexyl]-3-(2-methyl-4-pyridinyl)-1H-indazole-5-carboxamide]
14 | 7.43 | Cc1cc(-c2n[nH]c3ccc(C(=O)NC4CCCC(Cn5c(=O)ccc6ccccc65)C4)cc23)ccn1 (centres unmarked) [compound 121, 3-(2-methyl-4-pyridinyl)-N-[3-[(2-oxo-1(2h)-quinolinyl)methyl]cyclohexyl]-1H-indazole-5-carboxamide]
15 | 7.45 | Cc1cc(-c2n[nH]c3ccc(C(=O)N[C@@H]4CCC[C@@](O)(Cn5ncc6ccncc65)C4)cc23)ccn1 (relative stereo) [compound 80, N-[cis-3-hydroxy-3-(1H-pyrazolo[3,4-c]pyridin-1-ylmethyl)cyclohexyl]-3-(2-methyl-4-pyridinyl)-1H-indazole-5-carboxamide]
16 | 7.87 | Cc1cc(-c2n[nH]c3ccc(C(=O)NC4CCCC(CO)(Oc5cccc(F)c5)C4)cc23)ccn1 (single isomer, unassigned) [compound 43, N-[3-(3-fluorophenoxy)-3-(hydroxymethyl)cyclohexyl]-3-(2-methyl-4-pyridinyl)-1H-indazole-5-carboxamide]
17 | 7.35 | CC(C)Oc1ccc(-c2n[nH]c3ccc(C(=O)N[C@@H]4CCC[C@](O)(Cc5ccccc5F)C4)cc23)cn1 [compound 17, N-[3-(S)-[(2-fluorophenyl)methyl]-3-hydroxy-1(R)-cyclohexyl]-3-[6-(1-methylethoxy)-3-pyridinyl]-1H-indazole-5-carboxamide]
18 | 6.89 | Cc1cc(-c2n[nH]c3ccc(C(=O)NC4CCCC(Oc5ccc(F)cc5F)C4)cc23)ccn1 (single isomer, unassigned) [compound 37, N-[3-(2,4-difluorophenoxy)cyclohexyl]-3-(2-methyl-4-pyridinyl)-1H-indazole-5-carboxamide]
19 | 7.47 | Cc1cc(-c2n[nH]c3ccc(C(=O)NC4CCCC(Cn5ncc6ccncc65)C4)cc23)ccn1 (centres unmarked) [compound 115, 3-(2-methyl-4-pyridinyl)-N-[3-(1H-pyrazolo[3,4-c]pyridin-1-ylmethyl)cyclohexyl]-1H-indazole-5-carboxamide]
20 | 7.39 | Cc1cc(-c2n[nH]c3ccc(C(=O)NN4CCCC(Oc5ccccc5Cl)C4)cc23)ccn1 (centres unmarked) [compound 36, N-[3-(2-chlorophenoxy)-1-piperidinyl]-3-(2-methyl-4-pyridinyl)-1H-indazole-5-carboxamide]
21 | 7.81 | Cc1cc(-c2n[nH]c3ccc(C(=O)NC4CCCC(Cn5ncc6cccnc65)C4)cc23)ccn1 (centres unmarked) [compound 114, 3-(2-methyl-4-pyridinyl)-N-[3-(1H-pyrazolo[3,4-b]pyridin-1-ylmethyl)cyclohexyl]-1H-indazole-5-carboxamide]
22 | 7.42 | Cn1cc2cc(-c3n[nH]c4ccc(C(=O)N[C@@H]5CCC[C@@](O)(Cn6ccnc6)C5)cc34)ccc2n1 (relative stereo) [compound 57, N-[cis-3-hydroxy-3-(1H-imidazol-1-ylmethyl)cyclohexyl]-3-(2-methyl-2H-indazol-5-yl)-1H-indazole-5-carboxamide]
23 | 7.55 | COC1(Cc2ccccc2F)CCCC(NC(=O)c2ccc3[nH]nc(-c4ccnc(C)c4)c3c2)C1 (centres unmarked) [compound 39, N-[3-[(2-fluorophenyl)methyl]-3-methoxycyclohexyl]-3-(2-methyl-4-pyridinyl)-1H-indazole-5-carboxamide]
